According to ChEMBL document CHEMBL1201861, “Genomics of Drug Sensitity in Cancer screening data, Wellcome Trust Sanger Institute”:

What was measured:
[1] = system: DG-75; test: cells; type: functional, cell-based, Homo sapiens; conditions: Homo sapiens, DG-75;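 further: growth inhibition of DG-75 cells, read out with a cell viability assay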
Description: SANGER: Inhibition of human DG-75 cell growth in a cell viability assay.

[2] = system: DMS-153; test: cells; type: functional, cell-based, Homo sapiens; conditions: Homo sapiens, DMS-153
Description: SANGER: Inhibition of human DMS-153 cell growth in a cell viability assay.

[3] = system: DMS-273; test: cells; type: functional, cell-based; conditions: Homo sapiens
Description: SANGER: Inhibition of human DMS-273 cell growth in a cell viability assay.

[4] = system: DOK; test: cells; type: functional, cell-based; conditions: Homo sapiens;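 further: cell viability assay read-out, values reflect inhibition of cell growth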
Description: SANGER: Inhibition of human DOK cell growth in a cell viability assay.

[5] = system: DoTc2-4510; test: cells; type: functional, cell-based; conditions: Homo sapiens
[6] = system: EC-GI-10; test: cells; type: functional, cell-based, Homo sapiens; conditions: Homo sapiens, EC-GI-10
Description: SANGER: Inhibition of human EC-GI-10 cell growth in a cell viability assay.

[7] = system: EFO-27; test: cells; type: functional, cell-based; conditions: Homo sapiens;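 further: growth inhibition of EFO-27 cells, read out with a cell viability assay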
Description: SANGER: Inhibition of human EFO-27 cell growth in a cell viability assay.

[8] = system: EVSA-T; test: cells; type: functional, cell-based, Homo sapiens; conditions: Homo sapiens, EVSA-T;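 further: growth inhibition of EVSA-T cells, read out with a cell viability assay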
Description: SANGER: Inhibition of human EVSA-T cell growth in a cell viability assay.

[9] = system: G-361; test: cells; type: functional, cell-based; conditions: Homo sapiens
[10] = system: G-402; test: cells; type: functional, cell-based; conditions: Homo sapiens
Description: SANGER: Inhibition of human G-402 cell growth in a cell viability assay.

[11] = system: HCC1419; test: cells; type: functional, cell-based; conditions: Homo sapiens;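 further: growth inhibition of human HCC1419 cells, read out as cell viability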
Description: SANGER: Inhibition of human HCC1419 cell growth in a cell viability assay.

[12] = system: HCC38; test: cells; type: functional, cell-based; conditions: Homo sapiens;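 further: cell viability assay on the human HCC38 cell line, with IC50 marking the concentration that inhibits cell growth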
Description: SANGER: Inhibition of human HCC38 cell growth in a cell viability assay.

[13] = system: HCT-116; test: cells; type: functional, cell-based; conditions: Homo sapiens
Description: SANGER: Inhibition of human HCT-116 cell growth in a cell viability assay.

[14] = system: HOS; test: cells; type: functional, cell-based; conditions: Homo sapiens;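 further: growth inhibition of human HOS cells, read out with a cell viability assay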
Description: SANGER: Inhibition of human HOS cell growth in a cell viability assay.

[15] = system: HT-1376; test: cells; type: functional, cell-based; conditions: Homo sapiens
Description: SANGER: Inhibition of human HT-1376 cell growth in a cell viability assay.

[16] = system: HuO-3N1; test: cells; type: functional, cell-based; conditions: Homo sapiens;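 further: cell viability readout used to measure how strongly compounds suppress proliferation of human HuO-3N1 cells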
Description: SANGER: Inhibition of human HuO-3N1 cell growth in a cell viability assay.

[17] = system: IGROV-1; test: cells; type: functional, cell-based; conditions: Homo sapiens;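 further: reduction of IGROV-1 cell growth, read out with a viability assay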
Description: SANGER: Inhibition of human IGROV-1 cell growth in a cell viability assay.

[18] = system: JIYOYE; test: cells; type: functional, cell-based, Homo sapiens; conditions: Homo sapiens, JIYOYE
Description: SANGER: Inhibition of human JiyoyeP-2003 cell growth in a cell viability assay.

[19] = system: LB373-MEL-D; test: cells; type: functional, cell-based, Homo sapiens; conditions: Homo sapiens, LB373-MEL-D;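 further: growth inhibition of the cell line, read out in a cell viability assay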
Description: SANGER: Inhibition of human LB373-MEL-D cell growth in a cell viability assay.

[20] = system: MC-IXC; test: cells; type: functional, cell-based; conditions: Homo sapiens;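 further: growth inhibition of MC-IXC cells, read out with a cell viability assay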
Description: SANGER: Inhibition of human MC-IXC cell growth in a cell viability assay.

[21] = system: MDA-MB-453; test: cells; type: functional, cell-based; conditions: Homo sapiens
Description: SANGER: Inhibition of human MDA-MB-453 cell growth in a cell viability assay.

[22] = system: MKN-7; test: cells; type: functional, cell-based; conditions: Homo sapiens;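 further: growth inhibition of MKN-7 cells, read out with a cell viability assay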
Description: SANGER: Inhibition of human MKN7 cell growth in a cell viability assay.

[23] = system: NB1; test: cells; type: functional, cell-based, Homo sapiens; conditions: Homo sapiens, NB1;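 further: reduction of NB1 cell proliferation, read out with a viability assay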
Description: SANGER: Inhibition of human NB1 cell growth in a cell viability assay.

[24] = system: NCI-H1522; test: cells; type: functional, cell-based, Homo sapiens; conditions: Homo sapiens, NCI-H1522;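 further: growth inhibition of NCI-H1522 cells, read out with a cell viability assay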
Description: SANGER: Inhibition of human NCI-H1522 cell growth in a cell viability assay.

[25] = system: NCI-H2052; test: cells; type: functional, cell-based; conditions: Homo sapiens;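 further: growth inhibition of NCI-H2052 cells, read out with a cell viability assay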
Description: SANGER: Inhibition of human NCI-H2052 cell growth in a cell viability assay.

[26] = system: NCI-H2405; test: cells; type: functional, cell-based; conditions: Homo sapiens;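 further: growth inhibition of the human cell line, read out with a cell viability assay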
Description: SANGER: Inhibition of human NCI-H2405 cell growth in a cell viability assay.

[27] = system: NCI-H2452; test: cells; type: functional, cell-based; conditions: Homo sapiens;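 further: growth inhibition of NCI-H2452 cells, read out with a cell viability assay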
Description: SANGER: Inhibition of human NCI-H2452 cell growth in a cell viability assay.

[28] = system: NCI-H28; test: cells; type: functional, cell-based; conditions: Homo sapiens;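 further: growth inhibition of human NCI-H28 cells, read out as cell viability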
Description: SANGER: Inhibition of human NCI-H28 cell growth in a cell viability assay.

[29] = system: NCI-H441; test: cells; type: functional, cell-based; conditions: Homo sapiens;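 further: growth inhibition of NCI-H441 cells, read out with a cell viability assay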
Description: SANGER: Inhibition of human NCI-H441 cell growth in a cell viability assay.

[30] = system: NCI-H510A; test: cells; type: functional, cell-based, Homo sapiens; conditions: Homo sapiens, NCI-H510A;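 further: growth inhibition of NCI-H510A cells, read out with a cell viability assay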
Description: SANGER: Inhibition of human NCI-H510A cell growth in a cell viability assay.

[31] = system: NCI-H596; test: cells; type: functional, cell-based; conditions: Homo sapiens;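 further: growth inhibition of NCI-H596 cells, read out with a cell viability assay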
Description: SANGER: Inhibition of human NCI-H596 cell growth in a cell viability assay.

[32] = system: NCI-H630; test: cells; type: functional, cell-based; conditions: Homo sapiens;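 further: growth inhibition of NCI-H630 cells, read out with a cell viability assay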
Description: SANGER: Inhibition of human NCI-H630 cell growth in a cell viability assay.

[33] = system: NCI-H719; test: cells; type: functional, cell-based, Homo sapiens; conditions: Homo sapiens, NCI-H719;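 further: growth inhibition of the cultured cell line, read out with a viability assay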
Description: SANGER: Inhibition of human NCI-H719 cell growth in a cell viability assay.

[34] = system: OAW-28; test: cells; type: functional, cell-based; conditions: Homo sapiens;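 further: growth inhibition of OAW-28 cells, read out with a cell viability assay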
Description: SANGER: Inhibition of human OAW-28 cell growth in a cell viability assay.

[35] = system: OAW-42; test: cells; type: functional, cell-based; conditions: Homo sapiens;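 further: growth inhibition of OAW-42 cells, read out with a cell viability assay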
Description: SANGER: Inhibition of human OAW-42 cell growth in a cell viability assay.

[36] = system: REH; test: cells; type: functional, cell-based, Homo sapiens; conditions: Homo sapiens, REH;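 further: growth inhibition of REH cells determined with a cell viability read-out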
Description: SANGER: Inhibition of human REH cell growth in a cell viability assay.

[37] = system: RPMI-6666; test: cells; type: functional, cell-based, Homo sapiens; conditions: Homo sapiens, RPMI-6666
Description: SANGER: Inhibition of human RPMI-6666 cell growth in a cell viability assay.

[38] = system: RPMI-7951; test: cells; type: functional, cell-based; conditions: Homo sapiens
Description: SANGER: Inhibition of human RPMI-7951 cell growth in a cell viability assay.

[39] = system: RPMI 8402; test: SANGER: Inhibition of human RPMI-8402 cell growth in a cell viability assay.; type: functional, cell-based; conditions: Homo sapiens, RPMI 8402
[40] = system: SCC-9; test: cells; type: functional, cell-based; conditions: Homo sapiens;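 further: Read-out is a cell viability assay, with values giving inhibition of cell growth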
Description: SANGER: Inhibition of human SCC-9 cell growth in a cell viability assay.

[41] = system: SK-OV-3; test: cells; type: functional, cell-based; conditions: Homo sapiens;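 further: growth inhibition of SK-OV-3 human cells, read out with a cell viability assay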
Description: SANGER: Inhibition of human SK-OV-3 cell growth in a cell viability assay.

[42] = system: SN12C; test: cells; type: functional, cell-based; conditions: Homo sapiens;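 further: growth inhibition of human SN12C cells, measured by a cell viability assay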
Description: SANGER: Inhibition of human SN12C cell growth in a cell viability assay.

[43] = system: SR; test: cells; type: functional, cell-based, Homo sapiens; conditions: Homo sapiens, SR
Description: SANGER: Inhibition of human SR cell growth in a cell viability assay.

[44] = system: SU-DHL-1; test: SANGER: Inhibition of human SU-DHL-1 cell growth in a cell viability assay.; type: functional, cell-based; conditions: Homo sapiens, SU-DHL-1
[45] = system: SUP-T1; test: cells; type: functional, cell-based, Homo sapiens; conditions: Homo sapiens, SUP-T1;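 further: growth inhibition of human SUP-T1 cells, read out as cell viability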
Description: SANGER: Inhibition of human SUP-T1 cell growth in a cell viability assay.

[46] = system: SW1463; test: cells; type: functional, cell-based; conditions: Homo sapiens;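 further: growth inhibition of SW1463 cells, determined with a cell viability assay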
Description: SANGER: Inhibition of human SW1463 cell growth in a cell viability assay.

[47] = system: SiHa; test: cells; type: functional, cell-based; conditions: Homo sapiens;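 further: Viability-based readout of growth inhibition in SiHa cells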
Description: SANGER: Inhibition of human SiHa cell growth in a cell viability assay.

[48] = system: TALL-1; test: cells; type: functional, cell-based, Homo sapiens; conditions: Homo sapiens, TALL-1;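 further: growth inhibition of cultured human TALL-1 cells, read out by a cell viability assay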
Description: SANGER: Inhibition of human TALL-1 cell growth in a cell viability assay.

[49] = system: A204; test: cells; type: functional, cell-based; conditions: Homo sapiens;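 further: growth inhibition of human A204 cells, read out with a cell viability assay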
Description: SANGER: Inhibition of human A204 cell growth in a cell viability assay.

[50] = system: AU565; test: cells; type: functional, cell-based; conditions: Homo sapiens;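 further: cell viability assay measuring growth inhibition of human AU565 cells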
Description: SANGER: Inhibition of human AU565 cell growth in a cell viability assay.

[51] = system: BCPAP; test: cells; type: functional, cell-based; conditions: Homo sapiens;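 further: growth inhibition of BCPAP cells, read out in a cell viability assay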
Description: SANGER: Inhibition of human BCPAP cell growth in a cell viability assay.

[52] = system: BHY; test: cells; type: functional, cell-based; conditions: Homo sapiens;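 further: cell growth inhibition read out by a viability assay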
Description: SANGER: Inhibition of human BHY cell growth in a cell viability assay.

[53] = system: BT-20; test: cells; type: functional, cell-based; conditions: Homo sapiens;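 further: cell viability assay measuring suppression of growth in human BT-20 cells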
Description: SANGER: Inhibition of human BT-20 cell growth in a cell viability assay.

[54] = system: C-33-A; test: cells; type: functional, cell-based; conditions: Homo sapiens;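 further: cell viability assay measuring growth inhibition of C-33-A cells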
Description: SANGER: Inhibition of human C-33-A cell growth in a cell viability assay.

[55] = system: C32; test: cells; type: functional, cell-based; conditions: Homo sapiens;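 further: cell viability assay, with IC50 reflecting inhibition of C32 cell growth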
Description: SANGER: Inhibition of human C32 cell growth in a cell viability assay.

[56] = system: CAL-39; test: cells; type: functional, cell-based; conditions: Homo sapiens;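 further: cell viability assay measuring growth inhibition of CAL-39 cells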
Description: SANGER: Inhibition of human CAL-39 cell growth in a cell viability assay.

[57] = system: UMC-11; test: cells; type: functional, cell-based; conditions: Homo sapiens;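 further: growth inhibition of UMC-11 cells, read out with a cell viability assay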
Description: SANGER: Inhibition of human UMC-11 cell growth in a cell viability assay.

Structure (SMILES): Cc1ccc(C(=O)Nc2ccc(CN3CCN(C)CC3)c(C(F)(F)F)c2)cc1C#Cc1cnc2cccnn12 [PONATINIB]
- IC50 [1]: > 512 nM
- IC50 [2]: > 512 nM
- IC50 [3]: > 512 nM
- IC50 [4]: > 512 nM
- IC50 [5]: > 512 nM
- IC50 [6]: > 512 nM
- IC50 [7]: > 512 nM
- IC50 [8]: > 512 nM
- IC50 [9]: > 512 nM
- IC50 [10]: 63.4 nM
- IC50 [11]: > 512 nM
- IC50 [12]: > 512 nM
- IC50 [13]: 211 nM
- IC50 [14]: 504 nM
- IC50 [15]: > 512 nM
- IC50 [16]: > 512 nM
- IC50 [17]: > 512 nM
- IC50 [18]: > 512 nM
- IC50 [19]: > 512 nM
- IC50 [20]: > 512 nM
- IC50 [21]: > 512 nM
- IC50 [22]: > 512 nM
- IC50 [23]: > 512 nM
- IC50 [24]: > 512 nM
- IC50 [25]: 315 nM
- IC50 [26]: > 512 nM
- IC50 [27]: > 512 nM
- IC50 [28]: > 512 nM
- IC50 [29]: > 512 nM
- IC50 [30]: > 512 nM
- IC50 [31]: > 512 nM
- IC50 [32]: > 512 nM
- IC50 [33]: 78.9 nM
- IC50 [34]: > 512 nM
- IC50 [35]: > 512 nM
- IC50 [36]: > 512 nM
- IC50 [37]: > 512 nM
- IC50 [38]: > 512 nM
- IC50 [39]: > 512 nM
- IC50 [40]: > 512 nM
- IC50 [41]: > 512 nM
- IC50 [42]: > 512 nM
- IC50 [43]: > 512 nM
- IC50 [44]: 63.8 nM
- IC50 [45]: 99.8 nM
- IC50 [46]: > 512 nM
- IC50 [47]: > 512 nM
- IC50 [48]: > 512 nM
- IC50 [49]: 12.2 nM
- IC50 [50]: > 512 nM
- IC50 [51]: 360 nM
- IC50 [52]: > 512 nM
- IC50 [53]: > 512 nM
- IC50 [54]: > 512 nM
- IC50 [55]: > 512 nM
- IC50 [56]: 465 nM
- IC50 [57]: > 512 nM
